Data as given in ChEMBL document CHEMBL1138420, “Discovery of adamantane ethers as inhibitors of 11beta-HSD-1: Synthesis and biological evaluation” (Bioorg Med Chem Lett, 2007).

tested on: Mus musculus; test: Ex vivo inhibition of 11beta-HSD1 in ob/ob mouse liver at 30 mg/kg, po after 7 hrs; assay type: functional; settings: not given

SMILES	inhibition in vivo at 30 mg/kg [%]
CC(C)(Oc1ccc(Cl)cc1)C(=O)N[C@H]1C2CC3CC1C[C@](C(=O)NCc1ccc(C(=O)O)cc1)(C3)C2	93
CC(C)(Oc1ccc(Cl)cc1)C(=O)N[C@H]1C2CC3CC1C[C@](C(=O)NCc1ccc(S(N)(=O)=O)cc1)(C3)C2	55
CC(C)(Oc1ccccc1Cl)C(=O)N[C@H]1C2CC3CC1C[C@](C(=O)O)(C3)C2	76

tested on: Mus musculus; test: Ex vivo inhibition of 11beta-HSD1 in ob/ob mouse liver at 30 mg/kg, po after 16 hrs; assay type: functional; settings: not given

SMILES	inhibition in vivo at 30 mg/kg [%]
CC(C)(Oc1ccc(Cl)cc1)C(=O)N[C@H]1C2CC3CC1C[C@](C(=O)NCc1ccc(C(=O)O)cc1)(C3)C2	77
CC(C)(Oc1ccc(Cl)cc1)C(=O)N[C@H]1C2CC3CC1C[C@](C(=O)NCc1ccc(S(N)(=O)=O)cc1)(C3)C2	58
CC(C)(Oc1ccccc1Cl)C(=O)N[C@H]1C2CC3CC1C[C@](C(=O)O)(C3)C2	35

target: T1, 11-beta-hydroxysteroid dehydrogenase 1 (Homo sapiens, UniProt P28845); test: Inhibition of human 11beta-HSD1 by SPA; settings: not given
T1 sequence (P28845 whole entry): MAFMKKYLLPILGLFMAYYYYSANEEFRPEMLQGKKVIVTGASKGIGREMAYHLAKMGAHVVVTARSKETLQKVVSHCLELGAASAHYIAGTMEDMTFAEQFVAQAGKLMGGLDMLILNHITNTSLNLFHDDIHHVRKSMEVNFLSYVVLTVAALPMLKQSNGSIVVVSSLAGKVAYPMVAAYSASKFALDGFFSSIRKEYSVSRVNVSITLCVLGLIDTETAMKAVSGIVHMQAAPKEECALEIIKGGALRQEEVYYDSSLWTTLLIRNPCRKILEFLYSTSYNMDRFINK

IC50 [nM]	SMILES
25	CC(C)(Oc1ccc(Cl)cc1)C(=O)N[C@H]1C2CC3CC1C[C@](C(=O)NCc1ccncc1)(C3)C2
96	CC(C)(Oc1ccccc1Cl)C(=O)N[C@H]1C2CC3CC1C[C@](C(=O)NS(C)(=O)=O)(C3)C2
51	CC(C)(Oc1ccc(Cl)cc1)C(=O)N[C@H]1C2CC3CC1C[C@](C(=O)NCc1ccc(S(N)(=O)=O)cc1)(C3)C2
8	CC(C)(Oc1ccccc1Cl)C(=O)N[C@H]1C2CC3CC1C[C@](C(=O)O)(C3)C2

tested on: Mus musculus; test: Ex vivo inhibition of 11beta-HSD1 in ob/ob mouse brain at 30 mg/kg, po after 1 hr; assay type: functional; settings: not given

SMILES	inhibition in vivo at 30 mg/kg [%]
CC(C)(Oc1ccc(Cl)cc1)C(=O)N[C@H]1C2CC3CC1C[C@](C(=O)NCc1ccc(S(N)(=O)=O)cc1)(C3)C2	0

tested on: Mus musculus; test: Ex vivo inhibition of 11beta-HSD1 in ob/ob mouse fat at 30 mg/kg, po after 16 hrs; assay type: functional; settings: not given

SMILES	inhibition in vivo at 30 mg/kg [%]
CC(C)(Oc1ccc(Cl)cc1)C(=O)N[C@H]1C2CC3CC1C[C@](C(=O)NCc1ccc(C(=O)O)cc1)(C3)C2	36
CC(C)(Oc1ccc(Cl)cc1)C(=O)N[C@H]1C2CC3CC1C[C@](C(=O)NCc1ccc(S(N)(=O)=O)cc1)(C3)C2	5
CC(C)(Oc1ccccc1Cl)C(=O)N[C@H]1C2CC3CC1C[C@](C(=O)O)(C3)C2	6

target: T1, 11-beta-hydroxysteroid dehydrogenase 1; test: Inhibition of human 11beta-HSD1 expressed in HEK293 cells by FPIA; assay type: cell-based; settings: not given

IC50 [nM]	SMILES
91	CC(C)(Oc1ccc(Cl)cc1)C(=O)N[C@H]1C2CC3CC1C[C@](C(=O)NCc1ccncc1)(C3)C2
744	CC(C)(Oc1ccccc1Cl)C(=O)N[C@H]1C2CC3CC1C[C@](C(=O)NS(C)(=O)=O)(C3)C2
300	CC(C)(Oc1ccc(Cl)cc1)C(=O)N[C@H]1C2CC3CC1C[C@](C(=O)NCc1ccc(S(N)(=O)=O)cc1)(C3)C2
59	CC(C)(Oc1ccccc1Cl)C(=O)N[C@H]1C2CC3CC1C[C@](C(=O)O)(C3)C2

tested on: not listed separately; test: Metabolic stability in mouse liver microsome after 30 mins; assay type: ADME; settings: liver microsomes, read-out: Stability

SMILES	remaining at 0.5 h [%]
CC(C)(Oc1ccc(Cl)cc1)C(=O)N[C@H]1C2CC3CC1C[C@](C(=O)NCc1ccncc1)(C3)C2	16
CC(C)(Oc1ccc(Cl)cc1)C(=O)N[C@H]1C2CC3CC1C[C@](C(=O)NCc1ccc(C(=O)O)cc1)(C3)C2	94

Next, values leading:

remaining at 0.5 h [%]	SMILES
94	CC(C)(Oc1ccccc1Cl)C(=O)N[C@H]1C2CC3CC1C[C@](C(=O)NS(C)(=O)=O)(C3)C2
35	CC(C)(Oc1ccc(Cl)cc1)C(=O)N[C@H]1C2CC3CC1C[C@](C(=O)NCc1ccc(S(N)(=O)=O)cc1)(C3)C2
94	CC(C)(Oc1ccccc1Cl)C(=O)N[C@H]1C2CC3CC1C[C@](C(=O)O)(C3)C2

tested on: not listed separately; test: Plasma clearance in ob/ob mouse at 5 mg/kg, iv or 10 mg/kg, po; assay type: ADME, organism-based; settings: not given

clearance [mL/min/kg]	SMILES
15	CC(C)(Oc1ccc(Cl)cc1)C(=O)N[C@H]1C2CC3CC1C[C@](C(=O)NCc1ccc(S(N)(=O)=O)cc1)(C3)C2
15	CC(C)(Oc1ccccc1Cl)C(=O)N[C@H]1C2CC3CC1C[C@](C(=O)O)(C3)C2

target: T2, 11-beta-hydroxysteroid dehydrogenase type 2 (Mus musculus, UniProt P51661); test: Inhibition of mouse 11beta-HSD2 by SPA; settings: not given
T2 sequence (P51661 whole entry): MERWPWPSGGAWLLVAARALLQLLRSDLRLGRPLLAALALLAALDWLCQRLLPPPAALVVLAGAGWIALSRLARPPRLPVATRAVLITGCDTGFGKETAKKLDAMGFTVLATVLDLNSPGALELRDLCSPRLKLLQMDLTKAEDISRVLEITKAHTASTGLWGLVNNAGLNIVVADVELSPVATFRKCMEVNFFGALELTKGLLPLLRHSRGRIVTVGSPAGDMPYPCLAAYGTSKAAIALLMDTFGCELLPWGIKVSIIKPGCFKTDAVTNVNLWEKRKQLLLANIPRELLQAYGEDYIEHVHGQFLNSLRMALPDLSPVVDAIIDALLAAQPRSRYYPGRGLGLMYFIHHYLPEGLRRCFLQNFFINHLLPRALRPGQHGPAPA

IC50 [nM]	SMILES
19000	CC(C)(Oc1ccc(Cl)cc1)C(=O)N[C@H]1C2CC3CC1C[C@](C(=O)NCc1ccncc1)(C3)C2
1200	CC(C)(Oc1ccccc1Cl)C(=O)N[C@H]1C2CC3CC1C[C@](C(=O)NS(C)(=O)=O)(C3)C2
16000	CC(C)(Oc1ccc(Cl)cc1)C(=O)N[C@H]1C2CC3CC1C[C@](C(=O)NCc1ccc(S(N)(=O)=O)cc1)(C3)C2
140	CC(C)(Oc1ccccc1Cl)C(=O)N[C@H]1C2CC3CC1C[C@](C(=O)O)(C3)C2

tested on: Mus musculus; test: Ex vivo inhibition of 11beta-HSD1 in ob/ob mouse fat at 30 mg/kg, po after 1 hr; assay type: functional; settings: not given

SMILES	inhibition in vivo at 30 mg/kg [%]
CC(C)(Oc1ccc(Cl)cc1)C(=O)N[C@H]1C2CC3CC1C[C@](C(=O)NCc1ccc(C(=O)O)cc1)(C3)C2	37
CC(C)(Oc1ccc(Cl)cc1)C(=O)N[C@H]1C2CC3CC1C[C@](C(=O)NCc1ccc(S(N)(=O)=O)cc1)(C3)C2	15
CC(C)(Oc1ccccc1Cl)C(=O)N[C@H]1C2CC3CC1C[C@](C(=O)O)(C3)C2	67

tested on: Mus musculus; test: Ex vivo inhibition of 11beta-HSD1 in ob/ob mouse liver at 30 mg/kg, po after 1 hr; assay type: functional; settings: not given

SMILES	inhibition in vivo at 30 mg/kg [%]
CC(C)(Oc1ccc(Cl)cc1)C(=O)N[C@H]1C2CC3CC1C[C@](C(=O)NCc1ccc(C(=O)O)cc1)(C3)C2	99
CC(C)(Oc1ccc(Cl)cc1)C(=O)N[C@H]1C2CC3CC1C[C@](C(=O)NCc1ccc(S(N)(=O)=O)cc1)(C3)C2	45
CC(C)(Oc1ccccc1Cl)C(=O)N[C@H]1C2CC3CC1C[C@](C(=O)O)(C3)C2	81

tested on: Mus musculus; test: Ex vivo inhibition of 11beta-HSD1 in ob/ob mouse fat at 30 mg/kg, po after 7 hrs; assay type: functional; settings: not given

SMILES	inhibition in vivo at 30 mg/kg [%]
CC(C)(Oc1ccc(Cl)cc1)C(=O)N[C@H]1C2CC3CC1C[C@](C(=O)NCc1ccc(C(=O)O)cc1)(C3)C2	38
CC(C)(Oc1ccc(Cl)cc1)C(=O)N[C@H]1C2CC3CC1C[C@](C(=O)NCc1ccc(S(N)(=O)=O)cc1)(C3)C2	18
CC(C)(Oc1ccccc1Cl)C(=O)N[C@H]1C2CC3CC1C[C@](C(=O)O)(C3)C2	47

target: T3, 11-beta-hydroxysteroid dehydrogenase type 2 (Homo sapiens, UniProt P80365); test: Inhibition of human 11beta-HSD2 by SPA; settings: not given
T3 sequence (P80365 whole entry): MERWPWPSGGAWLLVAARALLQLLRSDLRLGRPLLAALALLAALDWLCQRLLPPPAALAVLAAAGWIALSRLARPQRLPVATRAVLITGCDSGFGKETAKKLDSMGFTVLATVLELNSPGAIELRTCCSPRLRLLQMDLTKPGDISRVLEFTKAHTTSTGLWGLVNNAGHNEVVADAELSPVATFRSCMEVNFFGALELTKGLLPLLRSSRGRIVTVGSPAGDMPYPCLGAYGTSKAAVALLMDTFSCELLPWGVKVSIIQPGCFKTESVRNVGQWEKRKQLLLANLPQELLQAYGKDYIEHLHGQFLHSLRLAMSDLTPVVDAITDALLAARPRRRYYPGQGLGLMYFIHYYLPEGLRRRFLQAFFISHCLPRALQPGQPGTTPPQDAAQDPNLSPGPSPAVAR

IC50 [nM]	SMILES
5300	CC(C)(Oc1ccc(Cl)cc1)C(=O)N[C@H]1C2CC3CC1C[C@](C(=O)NCc1ccncc1)(C3)C2
580	CC(C)(Oc1ccccc1Cl)C(=O)N[C@H]1C2CC3CC1C[C@](C(=O)NS(C)(=O)=O)(C3)C2
> 30000	CC(C)(Oc1ccc(Cl)cc1)C(=O)N[C@H]1C2CC3CC1C[C@](C(=O)NCc1ccc(S(N)(=O)=O)cc1)(C3)C2
1800	CC(C)(Oc1ccccc1Cl)C(=O)N[C@H]1C2CC3CC1C[C@](C(=O)O)(C3)C2

tested on: not listed separately; test: Half life in ob/ob mouse at 5 mg/kg, iv or 10 mg/kg, po; assay type: ADME, organism-based; settings: in vivo

half-life [h]	SMILES
3.8	CC(C)(Oc1ccc(Cl)cc1)C(=O)N[C@H]1C2CC3CC1C[C@](C(=O)NCc1ccc(S(N)(=O)=O)cc1)(C3)C2
3.9	CC(C)(Oc1ccccc1Cl)C(=O)N[C@H]1C2CC3CC1C[C@](C(=O)O)(C3)C2

tested on: not listed separately; test: Bioavailability in ob/ob mouse at 10 mg/kg; assay type: ADME, organism-based; settings: in vivo, oral

bioavailability [%]	SMILES
44	CC(C)(Oc1ccc(Cl)cc1)C(=O)N[C@H]1C2CC3CC1C[C@](C(=O)NCc1ccc(S(N)(=O)=O)cc1)(C3)C2
100	CC(C)(Oc1ccccc1Cl)C(=O)N[C@H]1C2CC3CC1C[C@](C(=O)O)(C3)C2

tested on: Mus musculus; test: Ex vivo inhibition of 11beta-HSD1 in ob/ob mouse brain at 30 mg/kg, po after 7 hrs; assay type: functional; settings: not given

SMILES	inhibition in vivo at 30 mg/kg [%]
CC(C)(Oc1ccc(Cl)cc1)C(=O)N[C@H]1C2CC3CC1C[C@](C(=O)NCc1ccc(S(N)(=O)=O)cc1)(C3)C2	0

target: 11-beta-hydroxysteroid dehydrogenase 1 (Mus musculus, UniProt P50172); test: Inhibition of mouse 11beta-HSD1 by SPA; settings: not given
Sequence (P50172 whole entry): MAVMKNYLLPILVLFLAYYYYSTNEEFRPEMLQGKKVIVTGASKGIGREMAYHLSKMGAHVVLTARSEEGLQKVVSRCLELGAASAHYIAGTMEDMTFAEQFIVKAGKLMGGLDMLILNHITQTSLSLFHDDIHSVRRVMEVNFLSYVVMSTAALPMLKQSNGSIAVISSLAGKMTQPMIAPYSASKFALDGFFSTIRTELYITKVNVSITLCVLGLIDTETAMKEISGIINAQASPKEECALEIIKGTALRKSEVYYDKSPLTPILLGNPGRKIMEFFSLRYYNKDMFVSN

SMILES	IC50 [nM]
CC(C)(Oc1ccc(Cl)cc1)C(=O)N[C@H]1C2CC3CC1C[C@](C(=O)NCc1ccncc1)(C3)C2	14
CC(C)(Oc1ccc(Cl)cc1)C(=O)N[C@H]1C2CC3CC1C[C@](C(=O)NCc1ccc(C(=O)O)cc1)(C3)C2	12

The remaining molecules from weak to strong by IC50, led by results:

IC50 [nM]	SMILES
28	CC(C)(Oc1ccccc1Cl)C(=O)N[C@H]1C2CC3CC1C[C@](C(=O)NS(C)(=O)=O)(C3)C2
24	CC(C)(Oc1ccc(Cl)cc1)C(=O)N[C@H]1C2CC3CC1C[C@](C(=O)NCc1ccc(S(N)(=O)=O)cc1)(C3)C2
8	CC(C)(Oc1ccccc1Cl)C(=O)N[C@H]1C2CC3CC1C[C@](C(=O)O)(C3)C2

tested on: Mus musculus; test: Ex vivo inhibition of 11beta-HSD1 in ob/ob mouse brain at 30 mg/kg, po after 16 hrs; assay type: functional; settings: not given

SMILES	inhibition in vivo at 30 mg/kg [%]
CC(C)(Oc1ccc(Cl)cc1)C(=O)N[C@H]1C2CC3CC1C[C@](C(=O)NCc1ccc(S(N)(=O)=O)cc1)(C3)C2	18
